Measured values published in US8471005B2 (Cephalon, Inc., priority 2008, dated 2013).
Like-named read-outs stand apart in the source and are kept apart here.

Columns and labels:
JAK2 = target: T1, JAK2 (Homo sapiens, UniProt O60674); assay: Recombinant Human JAK2 Kinase Assay (TRF); assay type: biochemical; details: read-out: JAK2 Potency
T1 construct: host or cells: baculovirus expression system
Summary of the method: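 Europium-labelled PY100 antibody reported tyrosine phosphorylation of a Neutravidin-captured biotinyl 15-mer peptide by JAK2 (baculovirus-expressed, 15 ng/ml). Conditions: 20 mM HEPES pH 7.2, 0.2 μM ATP, 1 mM MnCl2, 0.1% BSA, DMSO 2.5% final, 20 min at room temperature.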

ALK = target: T2, ALK (Homo sapiens, UniProt Q9UM73); assay: ALK Kinase Assay (ELISA/TRF, PLC-γ substrate); assay type: biochemical; details: read-out: ALK Potency
T2 construct: host or cells: baculovirus expression system
T2 sequence (Q9UM73 19-1620): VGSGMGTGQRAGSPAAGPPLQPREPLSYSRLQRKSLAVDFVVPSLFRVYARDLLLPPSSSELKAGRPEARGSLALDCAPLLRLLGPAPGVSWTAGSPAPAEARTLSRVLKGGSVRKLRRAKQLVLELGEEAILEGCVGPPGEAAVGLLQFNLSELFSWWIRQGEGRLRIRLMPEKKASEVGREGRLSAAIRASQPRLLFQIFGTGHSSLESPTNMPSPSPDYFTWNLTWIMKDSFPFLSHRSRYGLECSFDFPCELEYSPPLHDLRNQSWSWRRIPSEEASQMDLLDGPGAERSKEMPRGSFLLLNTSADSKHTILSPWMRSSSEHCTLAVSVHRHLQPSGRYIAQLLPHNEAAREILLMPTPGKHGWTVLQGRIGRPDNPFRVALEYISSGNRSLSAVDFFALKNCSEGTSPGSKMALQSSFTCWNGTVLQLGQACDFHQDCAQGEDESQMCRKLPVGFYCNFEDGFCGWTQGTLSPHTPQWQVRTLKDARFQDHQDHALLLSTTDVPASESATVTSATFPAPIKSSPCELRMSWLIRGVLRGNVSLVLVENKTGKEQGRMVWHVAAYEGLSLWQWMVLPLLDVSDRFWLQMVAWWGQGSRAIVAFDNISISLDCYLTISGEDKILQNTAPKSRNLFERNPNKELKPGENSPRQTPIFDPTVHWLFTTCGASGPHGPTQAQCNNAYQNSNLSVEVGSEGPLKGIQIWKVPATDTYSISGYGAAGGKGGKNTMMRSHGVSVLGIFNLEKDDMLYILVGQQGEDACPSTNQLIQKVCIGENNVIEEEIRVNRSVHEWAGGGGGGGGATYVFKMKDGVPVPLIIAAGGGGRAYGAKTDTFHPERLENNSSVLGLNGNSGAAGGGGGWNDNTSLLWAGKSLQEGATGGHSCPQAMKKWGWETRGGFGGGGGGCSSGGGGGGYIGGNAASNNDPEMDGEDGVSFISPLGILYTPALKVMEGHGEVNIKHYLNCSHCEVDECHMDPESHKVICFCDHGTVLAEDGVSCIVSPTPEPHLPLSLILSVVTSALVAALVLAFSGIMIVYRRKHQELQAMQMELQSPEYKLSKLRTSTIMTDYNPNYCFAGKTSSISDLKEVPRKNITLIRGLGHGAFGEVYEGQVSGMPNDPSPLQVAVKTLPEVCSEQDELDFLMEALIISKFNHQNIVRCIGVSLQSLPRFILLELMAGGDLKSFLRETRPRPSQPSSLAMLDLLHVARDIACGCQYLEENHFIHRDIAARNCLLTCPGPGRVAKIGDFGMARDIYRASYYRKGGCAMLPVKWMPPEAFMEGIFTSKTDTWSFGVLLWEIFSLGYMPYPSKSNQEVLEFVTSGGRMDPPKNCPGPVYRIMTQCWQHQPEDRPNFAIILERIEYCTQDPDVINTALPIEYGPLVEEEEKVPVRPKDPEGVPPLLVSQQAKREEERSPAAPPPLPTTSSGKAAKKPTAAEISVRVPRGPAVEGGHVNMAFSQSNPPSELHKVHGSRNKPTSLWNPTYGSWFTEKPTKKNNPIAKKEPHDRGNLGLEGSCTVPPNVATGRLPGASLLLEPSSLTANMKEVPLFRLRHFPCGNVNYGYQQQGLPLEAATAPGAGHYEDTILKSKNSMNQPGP
Summary of the method: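 First, plates are coated with substrate (phospholipase C-γ, 10 μg/mL, TBS). Next, 30 ng/ml ALK initiates phosphorylation for 15 min at 37° C. Then Eu-N1 PT66 antibody is added for detection, and a nonlinear dose-response fit of percent inhibition yields IC50.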

[1] = JAK2 kinase inhibition, 0.2 μM ATP
[2] = ALK kinase inhibition, 1 μM ATP

T1 sequence (O60674 whole entry): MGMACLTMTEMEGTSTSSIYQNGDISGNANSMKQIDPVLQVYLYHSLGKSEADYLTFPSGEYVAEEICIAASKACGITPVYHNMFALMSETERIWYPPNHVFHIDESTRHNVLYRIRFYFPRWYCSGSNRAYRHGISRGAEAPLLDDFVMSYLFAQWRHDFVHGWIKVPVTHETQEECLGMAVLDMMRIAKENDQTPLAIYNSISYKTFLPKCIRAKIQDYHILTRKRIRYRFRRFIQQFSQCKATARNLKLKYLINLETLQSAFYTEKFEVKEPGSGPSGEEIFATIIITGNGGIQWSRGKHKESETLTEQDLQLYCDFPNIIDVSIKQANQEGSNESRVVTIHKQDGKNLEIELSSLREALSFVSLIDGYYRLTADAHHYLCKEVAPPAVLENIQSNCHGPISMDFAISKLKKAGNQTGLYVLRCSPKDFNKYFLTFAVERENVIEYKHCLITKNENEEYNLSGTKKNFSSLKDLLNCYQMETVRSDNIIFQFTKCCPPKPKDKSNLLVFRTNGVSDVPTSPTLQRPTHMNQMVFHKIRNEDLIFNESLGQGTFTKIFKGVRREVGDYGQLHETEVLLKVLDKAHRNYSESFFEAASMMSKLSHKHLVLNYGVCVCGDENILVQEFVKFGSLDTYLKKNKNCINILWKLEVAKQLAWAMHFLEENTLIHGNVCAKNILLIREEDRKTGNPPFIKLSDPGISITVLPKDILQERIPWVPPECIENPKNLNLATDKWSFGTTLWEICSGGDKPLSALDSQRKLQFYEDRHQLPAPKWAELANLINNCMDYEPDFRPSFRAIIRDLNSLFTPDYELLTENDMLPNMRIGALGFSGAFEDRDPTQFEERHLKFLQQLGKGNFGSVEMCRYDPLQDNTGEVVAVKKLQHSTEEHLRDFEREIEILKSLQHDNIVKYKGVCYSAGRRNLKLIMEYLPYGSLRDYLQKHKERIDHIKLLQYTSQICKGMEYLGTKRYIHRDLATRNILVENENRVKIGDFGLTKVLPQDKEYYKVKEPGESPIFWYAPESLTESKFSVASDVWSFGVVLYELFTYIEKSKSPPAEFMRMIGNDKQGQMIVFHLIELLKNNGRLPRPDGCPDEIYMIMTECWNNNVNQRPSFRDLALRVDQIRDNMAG

SMILES	IC50 (JAK2; JAK2 Kinase Inhibition) [µM]	IC50 (ALK; ALK Kinase Inhibition) [µM]	IC50 (JAK2; [1]) [µM]	IC50 (ALK; [2]) [µM]
CS(=O)(=O)Nc1cccc(-c2ccc3cnc(Nc4ccc5c(c4)CCC(N4CCOCC4)CC5)nn23)c1 (centres unmarked) [Example 382, N-{3-[2-(7-Morpholin-4-yl-6,7,8,9-tetrahydro-5H-benzocyclohepten-2-ylamino)-pyrrolo[2,1-f][1,2,4]triazin-7-yl]-phenyl}-methanesulfonamide]	< 0.1	0.1 to 1	–	–
COc1cc(N2CCCN(C[C@H](O)CO)CC2)ccc1Nc1ncc2ccc(-c3ccccc3N(C)S(C)(=O)=O)n2n1 [Example 773, N-[2-(2-{4-[4-((S)-2,3-Dihydroxy-propyl)-[1,4]diazepan-1-yl]-2-methoxy-phenylamino}-pyrrolo[2,1-f][1,2,4]triazin-7-yl)-phenyl]-N-methyl-methanesulfonamide]	–	–	0.1 to 1	< 0.1
COc1cc(N2CCC(N3CCOCC3)CC2)ccc1Nc1ncc2ccc(-c3ccccc3S(C)(=O)=O)n2n1 [Example 540, [7-(2-Methanesulfonyl-phenyl)-pyrrolo[2,1-f][1,2,4]triazin-2-yl]-[2-methoxy-4-(4-morpholin-4-yl-piperidin-1-yl)-phenyl]-amine]	–	–	1 to 10	1 to 10
COc1cc(N2CCC(N3CC[C@@H](O)C3)CC2)ccc1Nc1ncc2ccc(-c3ccccc3N(C)S(C)(=O)=O)n2n1 [Example 478, N-[2-(2-{4-[4-((R)-3-Hydroxy-pyrrolidin-1-yl)-piperidin-1-yl]-2-methoxy-phenylamino}-pyrrolo[2,1-f][1,2,4]triazin-7-yl)-phenyl]-N-methyl-methanesulfonamide]	–	–	< 0.1	< 0.1
COc1ncccc1-c1ccc2cnc(Nc3ccc(N4CCOCC4)cc3)nn12 [Example 16, [7-(2-Methoxy-pyridin-3-yl)-pyrrolo[2,1-f][1,2,4]triazin-2-yl]-(4-morpholin-4-yl-phenyl)-amine]	< 0.1	0.1 to 1	–	–
CCN1CCOC(c2ccc(Nc3ncc4ccc(-c5cc(Cl)ccc5OC)n4n3)cc2)C1 (centres unmarked) [Example 253, [7-(5-Chloro-2-methoxy-phenyl)-pyrrolo[2,1-f][1,2,4]triazin-2-yl]-[4-(4-ethyl-morpholin-2-yl)-phenyl]-amine]	< 0.1	< 0.1	–	–
c1ccc(-c2ccc3cnc(NCCCN4CCOCC4)nn23)cc1 [Example 29, (3-Morpholin-4-yl-propyl)-(7-phenyl-pyrrolo[2,1-f][1,2,4]triazin-2-yl)-amine]	1 to 10	> 10	–	–
COc1ccccc1-c1ccc2cnc(Nc3ccc4c(c3)OCC(=O)N4C)nn12 [Example 647, 7-[7-(2-Methoxy-phenyl)-pyrrolo[2,1-f][1,2,4]triazin-2-ylamino]-4-methyl-4H-benzo[1,4]oxazin-3-one]	–	–	< 0.1	0.1 to 1
COc1cc(N2CCC(N(C)C)C2)ccc1Nc1ncc2ccc(-c3ccccc3OC)n2n1 (centres unmarked) [Example 763, [4-(3-Dimethylamino-pyrrolidin-1-yl)-2-methoxy-phenyl]-[7-(2-methoxy-phenyl)-pyrrolo[2,1-f][1,2,4]triazin-2-yl]-amine]	–	–	< 0.1	< 0.1
COc1cc(C2CCN(C)CC2)ccc1Nc1ncc2ccc(-c3ccccc3OC)n2n1 [Example 762, [2-Methoxy-4-(1-methyl-piperidin-4-yl)-phenyl]-[7-(2-methoxy-phenyl)-pyrrolo[2,1-f][1,2,4]triazin-2-yl]-amine]	–	–	< 0.1	< 0.1
COc1cc(C2CCN(CC(N)=O)CC2)ccc1Nc1ncc2ccc(-c3ccccc3OC)n2n1 [Example 814, 2-(4-{3-Methoxy-4-[7-(2-methoxy-phenyl)-pyrrolo[2,1-f][1,2,4]triazin-2-ylamino]-phenyl}-piperidin-1-yl)-acetamide]	–	–	0.1 to 1	< 0.1
COc1ccccc1-c1ccc2cnc(Nc3ccc(C4CC5CCC(C4)N5C)cc3)nn12 (centres unmarked) [Example 945, [7-(2-Methoxy-phenyl)-pyrrolo[2,1-f][1,2,4]triazin-2-yl]-[4-(8-methyl-8-azabicyclo[3.2.1]oct-3-yl)-phenyl]-amine]	–	–	< 0.1	< 0.1
CN1CCN(Cc2cccc(Nc3ncc4ccc(-c5cccc(S(C)(=O)=O)c5)n4n3)n2)CC1 [Example 1124, [7-(3-Methanesulfonyl-phenyl)-pyrrolo[2,1-f][1,2,4]triazin-2-yl]-[6-(4-methyl-piperazin-1-ylmethyl)-pyridin-2-yl]-amine]	–	–	> 10	> 10
COc1ccc(-c2ccc3cnc(Nc4ccc5nc(CO)[nH]c5c4)nn23)cn1 [Example 1069, {6-[7-(6-Methoxy-pyridin-3-yl)-pyrrolo[2,1-f][1,2,4]triazin-2-ylamino]-1H-benzoimidazol-2-yl}-methanol]	–	–	< 0.1	1 to 10

Results, then the compound that gave them:

IC50 (JAK2; JAK2 Kinase Inhibition) [µM]	IC50 (ALK; ALK Kinase Inhibition) [µM]	IC50 (JAK2; [1]) [µM]	IC50 (ALK; [2]) [µM]	SMILES
< 0.1	1 to 10	–	–	COCC(C)OC(=O)COc1ccccc1-c1ccc2cnc(Nc3ccc(N4CCN(C)CC4)c(F)c3)nn12 (centres unmarked) [Example 1397, (2-{2-[3-Fluoro-4-(4-methyl-piperazin-1-yl)-phenylamino]-pyrrolo[2,1-f][1,2,4]triazin-7-yl}-phenoxy)-acetic acid 2-methoxy-1-methyl-ethyl ester]
–	–	< 0.1	1 to 10	COc1ccccc1-c1ccc2cnc(Nc3cnn(CCN4CCOCC4)c3)nn12 [Example 1190, [7-(2-Methoxy-phenyl)-pyrrolo[2,1-f][1,2,4]triazin-2-yl]-[1-(2-morpholin-4-yl-ethyl)-1H-pyrazol-4-yl]-amine]
–	–	< 0.1	0.1 to 1	CN(c1ccccc1-c1ccc2cnc(Nc3ccc4cn(CCN5CCOCC5)nc4c3)nn12)S(C)(=O)=O [Example 1342, N-Methyl-N-(2-{2-[2-(2-morpholin-4-yl-ethyl)-2H-indazol-6-ylamino]-pyrrolo[2,1-f][1,2,4]triazin-7-yl}-phenyl)-methanesulfonamide]
< 0.1	1 to 10	–	–	CC(C)C(=O)Nc1cccc(Nc2ncc3ccc(-c4cccc(S(=O)(=O)NC(C)(C)C)c4)n3n2)c1 [Example 1385, N-{3-[7-(3-tert-Butylsulfamoyl-phenyl)-pyrrolo[2,1-f][1,2,4]triazin-2-ylamino]-phenyl}-isobutyramide]
< 0.1	< 0.1	–	–	COc1ccccc1-c1ccc2cnc(Nc3cc(F)c(N4CCN(C[C@H](C)O)CC4)cc3F)nn12 [Example 1481, (S)-1-(4-{2,5-Difluoro-4-[7-(2-methoxy-phenyl)-pyrrolo[2,1-f][1,2,4]triazin-2-ylamino]-phenyl}-piperazin-1-yl)-propan-2-ol]
< 0.1	0.1 to 1	–	–	CN1CCN(c2ccc(Nc3ncc4ccc(-c5ccccc5CO)n4n3)cc2)CC1 [Example 1504, (2-{2-[4-(4-Methyl-piperazin-1-yl)-phenylamino]-pyrrolo[2,1-f][1,2,4]triazin-7-yl}-phenyl)-methanol]
0.1 to 1	0.1 to 1	–	–	Cc1c(Nc2ncc3ccc(-c4ccccc4N(C)S(C)(=O)=O)n3n2)ccc2[nH]c(=O)oc12 [Example 1493, N-Methyl-N-{2-[2-(7-methyl-2-oxo-2,3-dihydro-benzoxazol-6-ylamino)-pyrrolo[2,1-f][1,2,4]triazin-7-yl]-phenyl}-methanesulfonamide]
–	–	< 0.1	1 to 10	CC(=O)Nc1cccc(Nc2ncc3ccc(-c4cccc(NS(C)(=O)=O)c4)n3n2)c1 [Example 1363, N-{3-[7-(3-Methanesulfonylamino-phenyl)-pyrrolo[2,1-f][1,2,4]triazin-2-ylamino]-phenyl}-acetamide]
